Active and inactive are the calls of the source. The rule behind the calls is not given here.
target: Ubiquitin-conjugating enzyme E2 N (Homo sapiens) (UniProt P61088); assay: UBE2N binders by NMR, biophysical, purified protein (AID 1552); conditions: NMR binding to purified UBE2N
Sequence (P61088 whole entry, looked up): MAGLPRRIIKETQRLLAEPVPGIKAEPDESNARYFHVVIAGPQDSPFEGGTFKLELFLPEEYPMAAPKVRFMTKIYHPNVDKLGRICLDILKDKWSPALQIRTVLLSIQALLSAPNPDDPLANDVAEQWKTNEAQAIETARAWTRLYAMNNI

How did the Kd turn out when `COC(=O)c1cncc(C(=O)OC)c1` was run?
Its Kd is > 4 mM (inactive).

Which Kd does the source give for `CC(C)(C#N)O[C@@H]1O[C@H](CO)[C@@H](O)[C@H](O)[C@H]1O` here?
The Kd was > 4 mM (inactive).

`O=S1(=O)C=CC(N2CCCCC2)C1` (stereo unspecified) was tested. Which Kd did it give?
The Kd was > 4 mM (inactive).

`S=c1nc(C2CC2)[nH]c2ccccc12` was tested. Which Kd did it give?
The Kd was > 4 mM (inactive).

`CSc1ncnc2nc[nH]c12` was tested. Which Kd did it give?
The Kd was > 4 mM (inactive).

For `COC(=O)c1ccc2nc[nH]c2c1`, which Kd is on record?
The Kd was > 4 mM (inactive).

`Cc1csc(CCc2nc(C)cs2)n1` was tested. Which Kd did it give?
Its Kd is > 4 mM (inactive).

With `Cc1cc(=O)n2[nH]c(COc3ccccc3)nc2n1` as the molecule, how does the Kd read?
Its Kd is > 4 mM (inactive).

`Cc1onc(-c2c(Cl)cccc2Cl)c1C(N)=O` was tested. Which Kd did it give?
The Kd was > 4 mM (inactive).

Which Kd does the source give for `O=S1(=O)CCC(NC(=S)N2CCOCC2)C1` (stereo unspecified) here?
The Kd was > 4 mM (inactive).

With `CC1(C)CC23C(=O)CCC(O)C2(C)CCC13` (stereo unspecified) as the molecule, how does the Kd read?
Its Kd is > 4 mM (inactive).

Which Kd does the source give for `Cc1nnc(SCc2ccc(F)cc2)s1` here?
The Kd was > 4 mM (inactive).

With `Cc1cc(C(F)(F)F)nn1CC(N)=O` as the molecule, how does the Kd read?
Its Kd is > 4 mM (inactive).

`Cn1cc(C(=O)N/N=C/c2ccccc2)ccc1=O` was tested. Which Kd did it give?
Its Kd is > 4 mM (inactive).

With `Cc1csc(NC(=O)c2cccs2)n1` as the molecule, how does the Kd read?
Its Kd is > 4 mM (inactive).

With `Cc1cccc(C)c1N1C(=O)CCC1=O` as the molecule, how does the Kd read?
The Kd was > 4 mM (inactive).

How did the Kd turn out when `CCCSc1nnc2[nH]c(=O)cc(N)n12` was run?
The Kd was > 4 mM (inactive).

For `O=S(=O)(O)c1cc[n+]([O-])cc1`, which Kd is on record?
Its Kd is > 4 mM (inactive).

How did the Kd turn out when `CNc1nc(OC)nc(N2CCOCC2)n1` was run?
The Kd was > 4 mM (inactive).

How did the Kd turn out when `Cc1cc(C)n2c(SCc3cccs3)nnc2n1` was run?
Its Kd is > 4 mM (inactive).

For `Cc1nn(C)c(C)c1NC(=S)NC1CCCC1`, which Kd is on record?
The Kd was > 4 mM (inactive).

`O=C(CC1NCCNC1=O)Nc1ccccc1` (stereo unspecified) was tested. Which Kd did it give?
Its Kd is > 4 mM (inactive).

For `O=C(O)CCn1c(=O)oc2ccccc21`, which Kd is on record?
The Kd was > 4 mM (inactive).

How did the Kd turn out when `Cc1cc(NC(=O)c2c(F)c(F)c(F)c(F)c2F)no1` was run?
Its Kd is > 4 mM (inactive).

`CCCNC(=O)CSc1nnc(C)s1` was tested. Which Kd did it give?
The Kd was > 4 mM (inactive).

`OCc1nc2ccccc2s1` was tested. Which Kd did it give?
The Kd was > 4 mM (inactive).

Which Kd does the source give for `Cc1cc(C(=O)Nc2ccccn2)no1` here?
Its Kd is > 4 mM (inactive).

With `C=C(C)[C@H]1CC=C(C(=O)O)CC1` as the molecule, how does the Kd read?
The Kd was > 4 mM (inactive).

With `Nc1nnc(SCc2cccnc2)s1` as the molecule, how does the Kd read?
The Kd was > 4 mM (inactive).

Which Kd does the source give for `Cn1cnc2c1c(=O)[nH]c(=O)n2C` here?
Its Kd is > 4 mM (inactive).

Which Kd does the source give for `CCC(/C=C/[C@@H](C)[C@H]1CCC2C3CC=C4C[C@@H](O)CC[C@]4(C)C3CC[C@@]21C)C(C)C` (stereo partly specified) here?
Its Kd is > 4 mM (inactive).

Which Kd does the source give for `Cc1ccccc1-n1c(-c2ccncc2)n[nH]c1=S` here?
The Kd was > 4 mM (inactive).

Which Kd does the source give for `O=C(O)CCCc1nc2ccccc2s1` here?
The Kd was > 4 mM (inactive).

For `O=S(=O)(Cc1ccc(Cl)cc1)N1CCCC1`, which Kd is on record?
The Kd was > 4 mM (inactive).

How did the Kd turn out when `Cc1ccc(S(C)(=O)=O)s1` was run?
The Kd was > 4 mM (inactive).

Which Kd does the source give for `COc1cc(O)c(C(=O)c2ccccc2)cc1O` here?
Its Kd is > 4 mM (inactive).

For `O=C(O)c1ccc(-n2cncn2)cc1`, which Kd is on record?
The Kd was > 4 mM (inactive).

Which Kd does the source give for `COc1ccc(C)cc1S(=O)(=O)Nc1ccccc1C` here?
Its Kd is > 4 mM (inactive).

With `COc1ccc(C(=O)/C=C/c2ccccc2)cc1` as the molecule, how does the Kd read?
Its Kd is > 4 mM (inactive).

With `O=C(O)c1cccnc1-c1nc2ccccc2s1` as the molecule, how does the Kd read?
The Kd was > 4 mM (inactive).

`CCc1noc(C)c1C(=O)N1CCOCC1` was tested. Which Kd did it give?
Its Kd is > 4 mM (inactive).

For `O=C(NCN1CCOCC1)c1cccnc1`, which Kd is on record?
The Kd was > 4 mM (inactive).

`C[C@H](CCC(=O)O)[C@H]1CCC2C3C(CC[C@@]21C)[C@@]1(C)CC[C@@H](O)C[C@H]1C[C@H]3O` (stereo partly specified) was tested. Which Kd did it give?
The Kd was > 4 mM (inactive).

`COCC(=O)NC1CC(C)(C)NC(C)(C)C1` was tested. Which Kd did it give?
Its Kd is > 4 mM (inactive).

How did the Kd turn out when `Cc1onc(-c2ccccc2)c1C(=O)Nc1ccncc1` was run?
Its Kd is > 4 mM (inactive).

For `CC(=O)Nc1ccc(Nc2nnc(C)c(=O)[nH]2)cc1`, which Kd is on record?
The Kd was > 4 mM (inactive).

`O=C(NC(=S)NC1CCS(=O)(=O)C1)c1ccccc1` (stereo unspecified) was tested. Which Kd did it give?
The Kd was > 4 mM (inactive).

For `O=c1ccn(Cc2ccccc2)c(=O)n1Cc1ccccc1`, which Kd is on record?
Its Kd is > 4 mM (inactive).

For `O=C(CCc1ccc(O)cc1)c1c(O)cc(O)cc1O[C@@H]1O[C@H](CO)[C@@H](O)[C@H](O)[C@H]1O`, which Kd is on record?
Its Kd is > 4 mM (inactive).

`O=C1CSC(=Nc2cccc(C(=O)O)c2)N1` was tested. Which Kd did it give?
The Kd was > 4 mM (inactive).

Which Kd does the source give for `S=c1nc[nH]c2c1cnn2-c1ccccc1` here?
The Kd was > 4 mM (inactive).

`O[C@H]1C=C2CCN3Cc4cc5c(cc4C(C23)[C@@H]1O)OCO5` (stereo partly specified) was tested. Which Kd did it give?
The Kd was > 4 mM (inactive).

For `CCOC(=O)c1ccc(Oc2ccc(C)nn2)cc1`, which Kd is on record?
The Kd was > 4 mM (inactive).

How did the Kd turn out when `O=C(NC(=S)NCCO)c1ccccc1` was run?
The Kd was > 4 mM (inactive).

How did the Kd turn out when `OCc1ccc2c(c1)CCO2` was run?
The Kd was > 4 mM (inactive).

How did the Kd turn out when `COc1c2occc2c(OC)c2c(=O)cc(C)oc12` was run?
The Kd was > 4 mM (inactive).

With `C=C1[C@H]2CC[C@@]3(C)[C@H](c4ccoc4)OC(=O)C[C@]13O[C@H]1C[C@H](O)C(C)(C)[C@H](CC(=O)OC)[C@]12C` as the molecule, how does the Kd read?
Its Kd is > 4 mM (inactive).

With `Nc1cccc2c(=O)[nH][nH]c(=O)c12` as the molecule, how does the Kd read?
Its Kd is > 4 mM (inactive).

With `Cc1c(C(=O)OC(C)C)[nH]c2c1C(=O)CCC2` as the molecule, how does the Kd read?
The Kd was > 4 mM (inactive).

Which Kd does the source give for `O=c1cc(O)n(-c2ccc(F)cc2)c(=S)[nH]1` here?
Its Kd is > 4 mM (inactive).

`Nc1ncnc2c1ncn2CCN1CCOCC1` was tested. Which Kd did it give?
Its Kd is > 4 mM (inactive).

Which Kd does the source give for `Cc1noc(C)c1C(=O)NC1=NCCS1` here?
The Kd was > 4 mM (inactive).

How did the Kd turn out when `O=C1CNC(=O)N1Cc1ccc(F)cc1` was run?
The Kd was > 4 mM (inactive).

For `CCOC(=O)c1cnc2n(c1=O)CCS2`, which Kd is on record?
Its Kd is > 4 mM (inactive).

How did the Kd turn out when `COC(=O)[C@H]1[C@H]2C[C@H]3c4[nH]c5ccccc5c4CCN3C[C@H]2CC[C@@H]1O` was run?
The Kd was > 4 mM (inactive).

How did the Kd turn out when `Cc1onc(-c2ccccc2)c1CO` was run?
Its Kd is > 4 mM (inactive).

With `CCOC(=O)C1CCN(Cc2ccccc2)CC1` as the molecule, how does the Kd read?
The Kd was > 4 mM (inactive).

For `C=CCc1cc(C(=O)N2CCCCC2)ccc1O`, which Kd is on record?
The Kd was > 4 mM (inactive).

With `O=C1CC(=O)N(c2ccccc2)c2ccccc21` as the molecule, how does the Kd read?
The Kd was > 4 mM (inactive).

With `CC(=O)N1CCN(C2CCSC2)CC1` (stereo unspecified) as the molecule, how does the Kd read?
The Kd was > 4 mM (inactive).

Which Kd does the source give for `NC(=O)c1cc(N)ccc1N1CCCCC1` here?
Its Kd is > 4 mM (inactive).

For `CC(=O)Nc1ccc(S(=O)(=O)N(C)C)cc1`, which Kd is on record?
Its Kd is > 4 mM (inactive).

How did the Kd turn out when `O=C1OC(N2CCOCC2)c2ccccc21` (stereo unspecified) was run?
Its Kd is > 4 mM (inactive).

For `Nc1nc2ncc(=O)[nH]c2c(=O)[nH]1`, which Kd is on record?
Its Kd is > 4 mM (inactive).

How did the Kd turn out when `Cc1ccccc1N1CCN(C(=O)C2CCCCC2)CC1` was run?
The Kd was > 4 mM (inactive).

How did the Kd turn out when `COc1cc2[nH]c(=S)n(C)c(=O)c2cc1OC` was run?
The Kd was > 4 mM (inactive).

`Cc1cc(=O)n2[nH]cnc2n1` was tested. Which Kd did it give?
Its Kd is > 4 mM (inactive).

Which Kd does the source give for `CN(C(=O)c1cc2cccnc2n(C)c1=O)c1ccccc1` here?
The Kd was > 4 mM (inactive).

With `Cc1ccccc1NC(=O)CC1NCCNC1=O` (stereo unspecified) as the molecule, how does the Kd read?
The Kd was > 4 mM (inactive).

For `O=C1C(=O)N(CN2CCN(CCO)CC2)c2ccccc21`, which Kd is on record?
Its Kd is > 4 mM (inactive).

How did the Kd turn out when `C[C@@H]1OC(O[C@H]2C(O[C@H]3CC[C@@]4(C)C(CC[C@]5(C)C4CC=C4C6CC(C)(C)CC[C@]6(C(=O)O)CC[C@]45C)[C@]3(C)CO)OC[C@H](O)[C@@H]2O)[C@H](O)[C@H](O)[C@H]1O` (stereo partly specified) was run?
Its Kd is > 4 mM (inactive).

Which Kd does the source give for `CC1(C)N=C2C(=[N+]1[O-])CCC/C2=N\O` here?
Its Kd is > 4 mM (inactive).

Which Kd does the source give for `O=C1CN2C(=N1)N(Cc1ccccc1)c1ccccc12` here?
The Kd was > 4 mM (inactive).

Which Kd does the source give for `CS(=O)(=O)N1CCN(C(=O)Cc2cccs2)CC1` here?
Its Kd is > 4 mM (inactive).

How did the Kd turn out when `O=C(O)c1csc2ccccc12` was run?
The Kd was > 4 mM (inactive).

For `O=C(O)CCC(=O)Nc1nnc(C(F)(F)F)s1`, which Kd is on record?
Its Kd is > 4 mM (inactive).
